Laboratory results as given in patent US4853334A, “Method for the degradation of volatile chlorinated aliphatic hydrocarbons using pseudomonas fluorescens” (Microlife Technics, Inc., priority 1988, dated 1989).
“And” between values parts separate entries of the source, which are not always exact repeats. Equal values may be shown once.

Assays:
[1] = tested on: Pseudomonas fluorescens NRRL-B-18296; assay: Degradation of halogenated hydrocarbons by the strain (general statements); format: cell-based
[2] = tested on: Pseudomonas fluorescens NRRL-B-18296; assay: Degradation of various chloroaliphatic carbon sources in minimal medium broth (Example 3); format: cell-based; conditions: 100 ppm; mmo with 0.5% glucose, 0.005% yeast extract, 0.4% potassium nitrate; 10^6 bacteria/ml; 25° C., 24 hours
Description: (§1) In Examples 3 to 6, compounds of interest were quantitated using a Perkin-Elmer (model 8500) gas chromatograph equipped with an HS-6 headspace analyzer (Perkin-Elmer, Norwalk, CT). The instrument was fitted with a 6 foot stainless steel Sp2100 column (Supelco, Bellefonte, PA). Carrier gas flow rate (helium) was 20 ml/min. with an isothermal column temperature of 60° C. Injector and detector temperatures were 150° C. and 200° C. respectively.
(§2) All sample vials were equilibrated at 80° C. in the headspace analyzer for 10 minutes. Vial pressurization times of 30 seconds and injection times of 6 seconds were both controlled by programmed instrument time functions.
(§3) Calibrations were made by the external standard method using the internal data handling capabilities of the instrument. 100 ppm standards were prepared by dispensing 10 ul of the compounds into a serum bottle containing 100.0 g of chilled media analogous to experimental vials. Once the compound was completely dissolved, 2.00 g of the mixture was delivered by syringe to a headspace vial and sealed for subsequent headspace GC analysis.
(§4) Analysis of experimental vials was conducted by removing an aliquot by syringe and delivering 2.00 g to a headspace vial. Vials (6 ml) specified for use with the headspace analyzer were sealed using 19 mm TFE/silicone rubber septa and 20 mm crimp top seals (Alltech Associates, Deerfield, IL). A hand operated crimper was utilized.
The experiments were accomplished in 50 ml of minimal medium (mmo) that was modified. The modified minimal media (mmo) contained the sodium-potassium phosphate buffer at 0.06 M final concentration. The modified (mmo) was supplemented to a final concentration with 0.5% glucose, 0.005% yeast extract, 0.4% potassium nitrate and the volatile chloroaliphatic compound at 100 ppm. The flasks were inoculated with Pseudomonas fluorescens NRRL-B-18296 at 10^6 bacteria/ml. The remaining headspace in the vials was then filled with pure oxygen (approximately 60 ml) and sealed using 19 mm TFE/silicone rubber septa with 20mm crimp top seals. A hand operated crimper was utilized. The sealed vials were then shaken at 350 rpm on a New Brunswick gyrotary shaker (New Brunswick Scientific, Edison, NJ) at 25° C. for 24 hours.
Samples in triplicate (2.00 g) were removed after the 24 hour incubation. The samples were sealed in 6 ml vials and subjected to headspace analysis.
^1 values reported as percentage amounts of 100 ppm carbon source

[3] = tested on: Pseudomonas fluorescens NRRL-B-18296; assay: Growth on volatile chlorinated carbon sources (minimal media, vapor phase); format: cell-based; design: key: +: Growth; -: no growth; conditions: 72 hours at 25° C., minimal media (mmo), carbon source in vapor phase of sealed container
Description: ^1 Incubation was for 72 hours at 25° C. on minimal media
(mmo). Volatile carbon sources were supplied in the vapor phase of a
sealed container. +, Growth; -, no growth.

[4] = tested on: Pseudomonas fluorescens NRRL-B-18296; assay: Degradation of a mixture of 1,2-dichloroethane and 1,2-dichloropropane, 0.1% glucose (Example 4); format: cell-based; conditions: for % degradation: mixture, 100 ppm each, 0.1% glucose, 0.4% potassium nitrate, 10^6 bacteria/ml, 25° C., 168 hours
Description: as §1, §2, §3, §4
The potassium nitrate provides an assured oxygen source for this strain, since the degradations must be conducted under aerobic conditions.
^1 Experiments were accomplished in 100 ml minimal medium (mmo) supplemented with 0.1% glucose, 100 ppm of 1,2-dichloroethane, 100 ppm of 1,2-dichloropropane, and 0.4% potassium nitrate. The flasks were inoculated with Pseudomonas fluorescens NRRL-B-18296 at 10^6 bacteria/ml, sealed and shaken at 350 rpm on a New Brunswick gyrotary shaker (New Brunswick Scientific, Edison, NJ) at 25° C. for 168 hours. The shaking provides further oxygen to the medium.

[5] = tested on: Pseudomonas fluorescens NRRL-B-18296; assay: Degradation of a mixture of 1,2-dichloroethane and 1,2-dichloropropane, 1.0% glucose (Example 5); format: cell-based; conditions: glucose concentration increased to 1.0%
Description: as §1, §2, §3
Analysis of experimental vials was conducted by removing an aliquot by syringe and delivering 2.00 g to a headspace vial. Vials (6 ml) specified for use with the headspace analyzer were sealed using 19 mm TFE/silicone rubber septa and 20 mm crimp top seals (Alltech Associates, Deerfield, IL). […]

[6] = tested on: Pseudomonas fluorescens NRRL-B-18296; assay: Induction of degradation of 1,2-dichloroethane using various carbon sources (Example 6); format: cell-based
Description: as §1, §2
as §3, with “analysis. […]” for “analysis.”
Individual flasks were supplemented with the following carbon sources at 2mM: ethanol, sodium acetate, glucose, sodium succinate, sodium benzoate, ortho cresol or meta cresol. […] After incubation for 24 hours, the vials were analyzed directly on the headspace gas chromatograph.

[7] = tested on: Acinetobacter sp.; conditions: induced by prior growth on phenol; Nelson et al.; cited from earlier work
[8] = formed by anaerobic methanogens; Bouwer 1983; cited from earlier work

SMILES	Degradation by the strain (in words) [1]	% degradation [2]	Growth on carbon source [3]	also measured
CC(Cl)(Cl)Cl [1,1,1-trichloroethane]	not degraded	0%		
ClCC(Cl)Cl [1,1,2-trichloroethane]	can be degraded	23%	+	
ClCCCl [1,2-dichloroethane]	can be degraded	10%	+	Degradation upon extended degradation and supplementing with more glucose [4]: substantially completely degraded; % degradation [4]: 23.3% and 23%; degradative rate, with respect to time [5]: increased
CC(Cl)CCl (stereo not drawn) [1,2-dichloropropane]	can be degraded	3%	+	Degradation upon extended degradation and supplementing with more glucose [4]: substantially completely degraded; % degradation [4]: 32.1% and 32%; degradative rate, with respect to time [5]: increased
ClCCCCl [1,3-dichloropropane]		0%	-	
CC(C)(Cl)Cl [2,2-dichloropropane]	can be degraded	7%	+	
ClC(Cl)(Cl)Cl [Carbon tetrachloride]	not degraded			
CC(O)C(=O)O (stereo not drawn) [Sodium lactate]				Suitability as carbon source for the strain ([6]; 20 mM sodium lactate pre-culture, 25° C., 24 hours): effective carbon source
ClCCl [dichloromethane]	not degraded			
O=C[C@H](O)[C@@H](O)[C@H](O)[C@H](O)CO [glucose]				Induction of degradation of 1,2-dichloroethane ([6]; short time period of degradation): best carbon source to induce the degradation of 1,2-dichloroethane
ClC(Cl)=C(Cl)Cl [tetrachloroethylene]		0%	-	
ClC=C(Cl)Cl [trichloroethylene]	can be degraded	2%	+	aerobic metabolism (in words) [7]: aerobic metabolism
C=CCl [vinyl chloride]				toxicity relative to haloaliphatic hydrocarbons [8]: more toxic than the haloaliphatic hydrocarbons
